How the values were obtained:
Format in all cases: biochemical
MMP-9 = MMP-9 (Homo sapiens, UniProt P14780); assay: Test 4 MMP-9 inhibiting activity test (biotin labeled gelatin); conditions: activated human MMP-9, biotin labeled gelatin; read-out: MMP-9 inhibition activity value
Method: Test 4 MMP-9 Inhibiting Activity Test
A mixture of buffer solution (190 μl; pH 7.5 solution containing 50 mM Tris-HCl solution, 0.5 m sodium chloride solution and 5 mM calcium chloride solution), human MMP-9 (10 μl) and trypsin solution (20 μl; trypsin 3 mg in activated buffer (5 ml)) was incubated at 37° C. for 10 minutes. Thereto was added aprotinine solution (20 μl; aprotinine (3 mg) in buffer (5 ml)) and the mixture was incubated at 37° C. for 10 minutes, followed by addition of buffer (2 ml). The mixture was preserved under cooling with ice until use.
A mixture of DMSO solution (2 μl) containing definite concentration of the compound, biotin labeled gelatin (188 μl) and activated MMP-9 solution (10 μl) was put on a 96 well-assay plate (protein nonabsorbance type), well agitated, and incubated at 37° C. for 1 hour. This solution was transferred to Streptavidin-coating plate, and agitated at 15° C. to 30° C. for 30 minutes. And then the solution was washed with TTC buffer solution (200 μl) three times. Thereto was added Streptavidin-POD (200 μl) and the mixture was agitated at 15° C. to 25° C. for 60 minutes, followed by washing with TTC buffer (200 μl) three times. Then, ABTS solution (200 μl) was added thereto and after standing at room temperature for 40 minutes, furuorescence intensity was measured at 405 nm and IC50 was calculated.
In case of the above test, DMSO (2 μl) was used as a control instead of a sample solution. In the case of a blank, DMSO (2 μl) instead of the sample solution and the solution (10 μl) prepared in the same manner as preparation of […] but without adding 1.2 Uhuman MMP-9, instead of activated MMP-9 solution (10 μl), were used.

MMP-14 (MT1-MMP) = target: T1, MMP-14 (MT1-MMP) (Homo sapiens, UniProt P50281); assay: Test 5 MMP-14 (MT1-MMP) inhibiting activity test; conditions: human recombinant MT1-MMP, 37° C.; read-out: MMP-14 inhibition activity value
T1 construct: purchased Biogenesis, supplied by Cosmobio (Nakarai Tesku)
Method: Test 5 MMP-14 (MTI-MMP) Inhibiting Activity Test
Human recombinant MTI-MMP used the product prepared by Biogenesis and supplied by Cosmobio (Nakarai Tesku).
An assay buffer solution (70 μl, pH 7.5 solution containing 0.1M Tris-HCl solution, 0.1M calcium chloride solution, 10 mM sodium chloride solution and 0.05% Brij-35 solution), 0.1 w/w % a compound in DMSO (10 μl), MMP substrate solution (MOCAc-Pro-Leu-Gly-Leu-A2pr(DNP)-Ala-Arg-NH2 (Peptide Lab.) diluted with the assay buffer solution (50 μM, 10 μl)) and human recombinant MT1-MMP (0.4 pg/10 μl/well) were well agitated under stirring. The enzyme activity of the mixture was measured based on fluorescence intensity (λex 320 nm/λem 405 nm) by a fluorescence reader. After the mixture was incubated at 37° C. for 0.5 hour, the fluorescence intensity (λex 320 nm/λem 405 nm) was measured every hour, and IC50 was calculated.
The inhibition value was calculated by withdrawing average value of blank well from fluorescence mean value of well in which MT1-MMP was added. As the blank was used the mixed solution prepared by adding assay buffer (10 μl) instead of MT1-MMP solution.

MMP-3 = target: T2, MMP-3 (Homo sapiens, UniProt P08254); assay: Test 1 Test on MMP-3 inhibiting activity (fluorogenic peptide substrate); conditions: activated MMP-3, 37° C.; read-out: MMP-3 inhibition activity value
T2 construct: C-terminal truncated cDNA in which the cDNA encodes human prostromelysin; made in house; host or cells: E. coli
Method: Test 1 Test on MMP-3 Inhibiting Activity
C-terminal truncated cDNA in which the cDNA encodes human prostromelysin, was subcloned (proMMP-3, cDNA sequence in Nature, 348, 699-704 (1990)), was expressed in E. coli and then, the expressed protein was purified in accordance with the method described in Biochemistry 30, 6476-6483 (1991). proMMP-3 activation was carried out by treating with 1 mM 4-aminophenyl mercuric acetate for 60 minutes at 37° C.
Enzyme activity test was conducted by the method of C. G. Knight (FEBS Lett., 296(3), 263-266 (1992)).
A mixture of activated MMP-3 (20 nM, 10 μl), buffer solution (70 μl, pH 7.5 solution containing 100 mM Tris-HCl solution, 10 mM calcium chloride solution, 100 mM sodium chloride solution and 0.05% Brij-35 solution), MOCAc-Pro-Leu-Gly-Leu-A2pr(DNP)-Ala-Arg-NH2 in 0.1% DMSO solution (100 μM, 10 μl) and a test compound in DMSO solution was incubated for 1.5 hours at 37° C. The mixture was put on a 96 well-plate (100 μl/well) and the plate was cultured at 37° C. The enzyme activity in the presence of the compound was measured based on fluorescence intensity (λex 320 nm, λem 405 nm), and IC50 was calculated.

MMP-1 = target: T3, MMP-1 (Homo sapiens, UniProt P03956); assay: Test 6 MMP-1 inhibition activity test; conditions: MMP-1 from human rheumatic synovium fibroblast, activated with AMPA
T3 construct: calbiochem cat; purchased calbiochem 444208; host or cells: human rheumatic synovium fibroblast
T3 sequence (P03956 100-469): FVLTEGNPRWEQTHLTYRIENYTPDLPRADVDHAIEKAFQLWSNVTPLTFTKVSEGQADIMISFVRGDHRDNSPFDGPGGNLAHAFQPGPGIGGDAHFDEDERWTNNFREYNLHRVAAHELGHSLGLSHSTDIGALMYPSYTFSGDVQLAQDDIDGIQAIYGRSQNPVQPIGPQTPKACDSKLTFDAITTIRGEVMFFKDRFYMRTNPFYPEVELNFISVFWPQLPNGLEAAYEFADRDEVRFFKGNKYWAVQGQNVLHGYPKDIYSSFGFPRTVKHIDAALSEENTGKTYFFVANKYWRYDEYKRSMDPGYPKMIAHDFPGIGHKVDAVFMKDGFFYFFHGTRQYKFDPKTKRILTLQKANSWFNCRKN
Method: Test 6 MMP-1 Inhibition Activity Test
MMP-1 (stroma collagenase: EC3.4.24.7, human rheumatic synovium fibroblast, calbiochem cat. 444208) was activated with AMPA at 37° C. for 60 minutes. A test compound was preincubated with activated MMP-1 at 37° C. for 60 minutes in the reaction mixture containing 50 mM MOPS (pH 7.2), 10 mM aqueous calcium chloride solution, and 10 μM zinc chloride. Thereto was added 25 μM Mca-Pro-Leu-Dpa-Ala-Arg-NH2, and the mixture was incubated at 37° C. for 120 minutes. The enzyme activity was measured by fluorescence intensity of Mca-Pro-Leu-Gly, and IC50 was calculated.

Chain of MMP-9 (P14780 107-707 limits assumed): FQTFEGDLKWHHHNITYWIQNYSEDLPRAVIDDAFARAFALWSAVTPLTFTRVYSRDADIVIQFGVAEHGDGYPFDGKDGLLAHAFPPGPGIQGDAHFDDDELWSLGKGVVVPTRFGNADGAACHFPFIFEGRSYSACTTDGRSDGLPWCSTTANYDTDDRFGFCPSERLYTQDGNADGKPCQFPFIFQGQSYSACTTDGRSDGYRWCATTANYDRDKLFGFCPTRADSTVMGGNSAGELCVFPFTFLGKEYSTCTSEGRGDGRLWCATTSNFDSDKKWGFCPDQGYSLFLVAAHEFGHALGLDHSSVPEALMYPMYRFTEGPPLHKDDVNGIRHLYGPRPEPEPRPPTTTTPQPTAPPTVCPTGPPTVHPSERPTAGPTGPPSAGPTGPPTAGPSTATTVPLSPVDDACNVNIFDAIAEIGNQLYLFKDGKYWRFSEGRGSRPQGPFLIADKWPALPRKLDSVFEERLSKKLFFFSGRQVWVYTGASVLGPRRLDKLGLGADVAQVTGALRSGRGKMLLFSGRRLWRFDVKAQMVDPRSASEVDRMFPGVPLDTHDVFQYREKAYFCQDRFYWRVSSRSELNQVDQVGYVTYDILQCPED
T2 sequence (P08254 100-272 limits assumed): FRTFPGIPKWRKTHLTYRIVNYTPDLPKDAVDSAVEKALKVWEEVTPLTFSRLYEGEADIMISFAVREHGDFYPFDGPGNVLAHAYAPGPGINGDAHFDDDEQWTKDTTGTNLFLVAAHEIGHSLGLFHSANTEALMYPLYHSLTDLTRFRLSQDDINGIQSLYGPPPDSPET

Compound | IC50 (MMP-9) | IC50 (MMP-14 (MT1-MMP)) | IC50 (MMP-3) | IC50 (MMP-1)
CCOC(=O)CN(CC(=O)NO)S(=O)(=O)c1ccc(Oc2ccc(S(C)(=O)=O)cc2)cc1 [Example 22, Ethyl N-{[(hydroxyamino)carbonyl]methyl}-N-({4-[4-(methylsulfonyl)phenoxy]phenyl}sulfonyl)-glycinate] | 1400 nM | 668 nM | 26.6 nM | > 10000 nM
CCOC(=O)CN(C1(C(=O)NO)CCCC1)S(=O)(=O)c1ccc(Oc2ccc(S(C)(=O)=O)cc2)cc1 [Example 23, Ethyl N-{1-[(hydroxyamino)carbonyl]cyclopentyl}-N-({4-[4-(methylsulfonyl)phenoxy]phenyl}sulfonyl)glycinate] | 2300 nM | > 5000 nM | 21.6 nM | > 10000 nM
CCOC(=O)CCN(C1(C(=O)NO)CCCC1)S(=O)(=O)c1ccc(Oc2ccc(S(C)(=O)=O)cc2)cc1 [Example 26, Ethyl N-{1-[(hydroxyamino)carbonyl]cyclopentyl}-N-({4-[4-(methylsulfonyl)phenoxy]phenyl}sulfonyl)-β-alaninate] | > 100 nM | 395 nM | 14.3 nM | 3900 nM
CS(=O)(=O)c1ccc(Oc2ccc(S(=O)(=O)N(CC(=O)NO)Cc3ccncc3)cc2)cc1 [Example 42, N′^1′-Hydroxy-N′^2′-({4-[4-(methylsulfonyl)phenoxy]phenyl}sulfonyl)-N′^2′-(4-pyridinylmethyl)glycinamide] | 4300 nM | > 5000 nM | 67.5 nM | > 10000 nM
CCOCCN(C1(C(=O)NO)CCCC1)S(=O)(=O)c1ccc(Oc2ccc(S(C)(=O)=O)cc2)cc1 [Example 45, 1-[(2-Ethoxyethyl)({4-[4-(methylsulfonyl)phenoxy]phenyl}sulfonyl)amino]-N-hydroxycyclopentanecarboxamide] | > 100 nM | > 1500 nM | 1.5 nM | 4960 nM

From patent publication US7504537B2, “Hydroxamic acid derivative and MMP inhibitor containing the same as active ingredient” (Dainippon Sumitomo Pharma Co., Ltd., priority 2001, dated 2009)
